Measurements from patent US20240245649A1, “Method and Composition for Mimicking Caloric Restriction by Administration of Ergothioneine” (NANJING NUTRABUILDING BIO-TECH CO., LTD., priority 2021, published 2024).

Key:
high-fat diet (HFD) mice [1] = experiment: Blood LDL and HDL in high-fat diet mice supplemented with Ergothioneine; type: in vivo
Description: (§1) Mice group were named after the diet they consumed. Group A mice was fed ad libitum (control), and group B mice was on high-fat diet (HFD), Group C was fed restricted amount of the HFD diet to achieve caloric restriction (HFD+CR), and Group D was fed high-fat diet and supplemented with Ergothioneine (HFD+EGT), the concentration of Ergothioneine is 3.25 mg/kg. All groups of mice were housed individually, and fed for months of interventions and had free access to water. Health status was monitored during the intervention. At the end of each intervention, body composition, insulin sensitivity, blood glucose level, different blood parameters and lifespan of the mice were studied. After treatment, blood is taken to measure high-density lipoprotein (HDL), low-density lipoprotein (LDL) and HOmeostasis Model Assessment-Insulin Resistance (HOMA-IR). The HOMA-IR index was calculated using the following formula: HOMA-IR=[fasting glucose levels (mmol/L)]×[fasting serum insulin (mU/L)]/22.5. At the end of the experiment, AKT and phospho-AKT (Ser473) protein levels in skeletal muscle after 2 IU/kg insulin stimulation for 15 min were determined by immunoblotting (n=3-6). The concentrations of inflammatory cytokines including tumor necrosis factor-α (TNF-α) and interleukin (IL)-6, and oxidative stress markers including malonaldehyde (MDA) and superoxide dismutase (SOD) were detected by ELISA kits.

high-fat diet (HFD) mice [2] = experiment: HOMA-IR (fasting glucose x fasting serum insulin /22.5) in high-fat diet mice; type: in vivo
Description: as §1

[3] = test system: malonaldehyde (MDA) and superoxide dismutase (SOD); experiment: Oxidative stress markers MDA and SOD by ELISA kits in high-fat diet mice; type: in vivo
Description: as §1

[4] = animals and humans, even at high doses; cited from earlier work
[5] = test system: tumor necrosis factor-α (TNF-α) and interleukin (IL)-6; experiment: Inflammatory cytokines TNF-α and IL-6 by ELISA kits in high-fat diet mice; type: in vivo
Description: as §1

[6] = test system: AKT and phospho-AKT (Ser473); experiment: AKT and phospho-AKT (Ser473) protein levels in skeletal muscle after insulin stimulation, immunoblotting; type: in vivo, mice
Description: as §1

**Q.** What does the source list for `C[N+](C)(C)[C@@H](Cc1c[nH]c(=S)[nH]1)C(=O)[O-]` [Ergothioneine]?
**A.** level of LDL (high-fat diet (HFD) mice [1]; HFD+EGT (Group D), Ergothioneine 3.25 mg/kg, vs HFD group, FIG. 1): significantly decreased; level of HDL (high-fat diet (HFD) mice [1]; HFD+EGT (Group D), Ergothioneine 3.25 mg/kg, vs HFD group, FIG. 2): significantly increased; LDL level decreased by Ergothioneine to (high-fat diet (HFD) mice [1]; broadest of the nested bounds printed (24, 22, 20, 18, 15)): ≤ 24 mg/dL; HDL level increased by Ergothioneine to (high-fat diet (HFD) mice [1]; broadest of the nested bounds printed (40, 42, 44, 46, 48, 50)): ≥ 40 mg/dL; HOMA-IR (high-fat diet (HFD) mice [2]; HFD+EGT group vs HFD group, FIG. 3): lower HOMA-IR than HFD group; HOMA-IR decreased by Ergothioneine to (high-fat diet (HFD) mice [2]; broadest of the nested bounds printed (28, 26, 24, 22, 20, 15)): ≤ 28; MDA expression ([3]; EGT compared with HFD group, FIG. 7): reduction of MDA expression; SOD expression ([3]; EGT compared with HFD group, FIG. 8): elevation of SOD expression; level of MDA decreased by Ergothioneine to ([3]; broadest of the nested bounds printed (15, 13, 12, 11, 10, 8)): ≤ 15 nmol/mL; level of SOD increased by Ergothioneine to ([3]; broadest of the nested bounds printed (45, 48, 50, 51, 52, 55)): ≥ 45 U/mL; toxicity or adverse effects associated with administration [4]: no toxicity or adverse effects; content of TNF-α ([5]; HFD+EGT group compared with HFD group, FIG. 5): remarkably decreased; content of IL-6 ([5]; HFD+EGT group compared with HFD group, FIG. 6): remarkably decreased; level of IL-6 decreased by Ergothioneine to ([5]; broadest of the nested bounds printed (38, 35, 30, 28, 26, 22)): ≤ 38 pg/mL; level of TNF-α decreased by Ergothioneine to ([5]; broadest of the nested bounds printed (40, 38, 35, 32, 30, 28, 26)): ≤ 40 pg/mL; p-AKT/AKT increased by Ergothioneine to ([6]; broadest of the nested bounds printed (0.25, 0.35, 0.40, 0.45, 0.53, 0.60)): ≥ 0.25; insulin-stimulated AKT phosphorylation (p-AKT)/AKT relative protein expression ([6]; skeletal muscle, 2 IU/kg insulin for 15 min, HFD+EGT vs HFD group, FIG. 4): higher than HFD group
